Literature values in patent US20200039732A1, “DEVICES FOR DISPENSING A HYDROFLUOROOLEFIN VAPOCOOLANT COMPOSITION AS AN AEROSOL” (GEBAUER COMPANY, priority 2016, published 2020).
Read-outs that look alike come from different tables or passages of the source.

Conditions: for Liquid Viscosity / Surface Tension: at 20° C.

Q: Which Pvap (25° C.) does the source give for `F/C=C/C(F)(F)F` [HFO-1234ze, trans-1,3,3,3-tetrafluoroprop-1-ene] here?
A: 0.484 MPa

Q: What about the Pvap (80° C.) of the same compound?
A: 2.01 MPa

Q: What about the “Liquid Viscosity” value of the same compound?
A: 0.489 cP

Q: And the “Surface Tension” value?
A: 13.3 dyne/cm

Q: For `FC(F)(F)/C=C/Cl` [HCFO-1233zd, trans-1-chloro-3,3,3-trifluoropropene], which Pvap (25° C.) is on record?
A: 0.108 MPa

Q: What about the Pvap (80° C.) of the same compound?
A: 0.650 MPa

Q: What about the “Liquid Viscosity” value of the same compound?
A: 0.319 cP

Q: And the “Surface Tension” value?
A: 14.039 dyne/cm

Q: With `FCC(F)(F)F` [HFC-134a, 1,1,1,2-tetrafluoroethane] as the compound, how does the Pvap (25° C.) read?
A: 0.665 MPa

Q: And the Pvap (80° C.)?
A: 2.63 MPa

Q: And the “Liquid Viscosity” value?
A: 0.202 cP

Q: What about the “Surface Tension” value of the same compound?
A: 8.69 dyne/cm

Q: With `FC(F)CC(F)(F)F` [HFC-245fa, 1,1,1,3,3-pentafluoropropane] as the compound, how does the Pvap (25° C.) read?
A: 0.124 MPa

Q: And the Pvap (80° C.)?
A: 0.789 MPa

Q: And the “Liquid Viscosity” value?
A: 0.402 cP

Q: And the “Surface Tension” value?
A: 13.6 dyne/cm

Q: For `CCCl` [Ethyl Chloride, chloroethane], which Pvap (25° C.) is on record?
A: 0.135 MPa

Q: And the Pvap (80° C.)?
A: 0.745 MPa

Q: And the “Liquid Viscosity” value?
A: 0.279 cP

Q: And the “Surface Tension” value?
A: 19.5 dyne/cm

Q: With `CC(C)C` [Iso-Butane, isobutane] as the compound, how does the Pvap (25° C.) read?
A: 0.319 MPa

Q: And the Pvap (80° C.)?
A: 1.5 MPa

Q: What about the “Liquid Viscosity” value of the same compound?
A: 0.156 cP

Q: What about the “Surface Tension” value of the same compound?
A: 10.3 dyne/cm
